The structures appear in SMILES notation. Values after ≈ are worked out from the molar mass of the structure shown. Like-named read-outs stand apart in the source and are kept apart here. Bounds are passed on as bounds.

Format in all cases: cell-based
The test system of one experiment is E. coli ΔTolC. Briefly: microbe, parasite or virus in culture. The note with it: E. coli ΔTolC. In short, it runs like this:
(§1)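 Per CLSI, MICs by broth microdilution or agar dilution; strains other than streptococci and anaerobes were sub-cultured overnight at 35° C on blood agar, with a final broth inoculum of 5×10^5 CFU/mL.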

The test system of a further experiment is E. faecium Clinical VRE. The experiment in a line: MIC (broth microdilution or agar dilution, CLSI). The note with it: E. faecium Clinical VRE. An outline of the steps:
(§2)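 Triplicate CLSI determinations by broth or agar dilution, compound at 128-0.06 μg/mL in 2.5% DMSO; special handling for anaerobes. Broth microdilution used 5×10^5 CFU/mL inocula in cation-adjusted Mueller-Hinton broth.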
A general note: In broth dilution the organism is exposed to a series of concentrations in liquid medium.

A further experiment deals with P. aeruginosa ATCC 27853. Briefly: MIC (broth microdilution or agar dilution, CLSI). As to conditions: P. aeruginosa ATCC 27853. An outline of the steps: as §2
The subject of a further experiment is S. aureus cErmA. The experiment in a line: MIC (broth microdilution or agar dilution, CLSI). As to conditions: S. aureus cErmA. An outline of the steps: as §2
A further experiment deals with A. baumannii ATCC 19606. The experiment in a line: MIC (broth microdilution or agar dilution, CLSI). As to conditions: A. baumannii ATCC 19606. An outline of the steps:
as §1

The subject of a further experiment is E. coli ATCC 25922. The experiment in a line: MIC (broth microdilution or agar dilution, CLSI). The note with it: E. coli ATCC 25922. In short, it runs like this:
as §1

In a further experiment the test system is E. coli LptD. The experiment in a line: MIC (broth microdilution or agar dilution, CLSI). As to conditions: E. coli LptD. An outline of the steps: as §1
In the next experiment the test system is E. faecalis ATCC 29212. The experiment in a line: MIC (broth microdilution or agar dilution, CLSI). An outline of the steps:
as §1

A further experiment concerns K. oxytoca Clinical. The experiment in a line: MIC (broth microdilution or agar dilution, CLSI). The note with it: K. oxytoca Clinical. In short, it runs like this:
as §1

The subject of another experiment is S. aureus ATCC 29213. Briefly: MIC (broth microdilution or agar dilution, CLSI). In short, it runs like this: as §1
Another experiment relates to S. pneumoniae ATCC 49619. The experiment in a line: MIC (broth microdilution or agar dilution, CLSI). An outline of the steps: as §1
A further experiment relates to S. pyogenes ATCC 19615. Briefly: MIC (broth microdilution or agar dilution, CLSI). In short, it runs like this: as §1
[1] abbreviates: Enterococcus faecium, read-out: MIC.
Where [2] appears, read: Pseudomonas aeruginosa, ATCC27853, read-out: MIC.
Where [3] appears, read: Staphylococcus aureus, read-out: MIC.
The mark [4] stands for this setting: Acinetobacter baumannii, ATCC19606, read-out: MIC.
Setting [5] is: Escherichia coli, ATCC25922, read-out: MIC.
[6] abbreviates: Escherichia coli, read-out: MIC.
[7] abbreviates: Enterococcus faecalis, ATCC29212, E. faecalis ATCC 29212, read-out: MIC.
[8] abbreviates: Klebsiella oxytoca, read-out: MIC.
Setting [9] is: Staphylococcus aureus, ATCC29213, S. aureus ATCC 29213, read-out: MIC.
The mark [10] stands for this setting: Streptococcus pneumoniae, ATCC49619, S. pneumoniae ATCC 49619, read-out: MIC.
Setting [11] is: Streptococcus pyogenes, ATCC19615, S. pyogenes ATCC 19615, read-out: MIC.

`CSC1O[C@H]([C@H](NC(=O)[C@H]2NC[C@@H]3C[C@H](CC(F)F)CCO[C@H]32)[C@H](C)Cl)C(O)[C@@H](O)[C@H]1O` (stereo partly drawn) [FSA-10-09-093]: the MIC is 1 µg/mL (≈ 1.99 µM) with E. coli ΔTolC; 8 µg/mL (≈ 15.9 µM) against E. faecium Clinical VRE; above 128 µg/mL in the experiment with P. aeruginosa ATCC 27853; 32 µg/mL (≈ 63.6 µM) in the experiment on S. aureus cErmA; 128 µg/mL (≈ 254 µM) with A. baumannii ATCC 19606; 16 µg/mL (≈ 31.8 µM) against E. coli ATCC 25922. For the same molecule, the MIC with E. coli LptD came out at 4 µg/mL (≈ 7.95 µM); against E. faecalis ATCC 29212 (E. faecalis ATCC 29212), 0.25 µg/mL (≈ 0.497 µM); with K. oxytoca Clinical it was 16 µg/mL (≈ 31.8 µM); against S. aureus ATCC 29213 (S. aureus ATCC 29213), 0.25 µg/mL (≈ 0.497 µM); against S. pneumoniae ATCC 49619 (S. pneumoniae ATCC 49619), 0.5 µg/mL (≈ 0.994 µM); against S. pyogenes ATCC 19615 (S. pyogenes ATCC 19615), 0.5 µg/mL (≈ 0.994 µM).

With `CSC1O[C@H]([C@H](NC(=O)[C@H]2NC[C@@H]3C[C@H](CCF)CCO[C@H]32)[C@H](C)Cl)C(O)[C@@H](O)[C@H]1O` (stereo partly drawn) [FSA-10-09-099], the MIC is 1 µg/mL (≈ 2.06 µM) with E. coli ΔTolC (Escherichia coli); 16 µg/mL (≈ 33 µM) in the experiment with E. faecium Clinical VRE (setting [1]); above 128 µg/mL in the experiment on P. aeruginosa ATCC 27853 (setting [2]); 32 µg/mL (≈ 66 µM) with S. aureus cErmA (setting [3]); above 128 µg/mL in the experiment with A. baumannii ATCC 19606 (setting [4]); 32 µg/mL (≈ 66 µM) with E. coli ATCC 25922 (setting [5]). The MIC worked out at 4 µg/mL (≈ 8.25 µM) with E. coli LptD (setting [6]); 0.5 µg/mL (≈ 1.03 µM) in the experiment on E. faecalis ATCC 29212 (setting [7]); 32 µg/mL (≈ 66 µM) with K. oxytoca Clinical (setting [8]); 0.25 µg/mL (≈ 0.515 µM) in the experiment on S. aureus ATCC 29213 (setting [9]); 0.25 µg/mL (≈ 0.515 µM) with S. pneumoniae ATCC 49619 (setting [10]); 0.5 µg/mL (≈ 1.03 µM) in the experiment with S. pyogenes ATCC 19615 (setting [11]).

Take `CSC1O[C@H]([C@H](NC(=O)[C@H]2NC[C@@H]3C[C@H](CC4CC4)CCO[C@H]32)[C@H](C)Cl)C(O)[C@@H](O)[C@H]1O` (stereo partly drawn) [FSA-10-10-001]: the MIC in the experiment with E. coli ΔTolC (Escherichia coli) is 0.25 µg/mL (≈ 0.507 µM); in the experiment on E. faecium Clinical VRE (setting [1]), 2 µg/mL (≈ 4.06 µM); in the experiment with P. aeruginosa ATCC 27853 (setting [2]), above 128 µg/mL; in the experiment on S. aureus cErmA (setting [3]), 4 µg/mL (≈ 8.11 µM); with A. baumannii ATCC 19606 (setting [4]), 16 µg/mL (≈ 32.5 µM); in the experiment with E. coli ATCC 25922 (setting [5]), 4 µg/mL (≈ 8.11 µM). The MIC in the experiment with E. coli LptD (setting [6]) came out at 0.5 µg/mL (≈ 1.01 µM); with E. faecalis ATCC 29212 (setting [7]), 0.06 µg/mL (≈ 0.122 µM); in the experiment with K. oxytoca Clinical (setting [8]), 8 µg/mL (≈ 16.2 µM); with S. aureus ATCC 29213 (setting [9]), 0.125 µg/mL (≈ 0.254 µM); in the experiment on S. pneumoniae ATCC 49619 (setting [10]), 0.125 µg/mL (≈ 0.254 µM); in the experiment with S. pyogenes ATCC 19615 (setting [11]) it was 0.125 µg/mL (≈ 0.254 µM).

`CC[C@@H]1CCO[C@@H]2[C@H](CN[C@@H]2C(=O)N[C@H]([C@H](C)Cl)[C@H]2OC(SC)[C@H](O)[C@H](O)C2O)C1` (stereo partly drawn) [FSA-10-10-012]: the MIC in the experiment with E. coli ΔTolC (Escherichia coli) is 0.5 µg/mL (≈ 1.07 µM); in the experiment on E. faecium Clinical VRE (setting [1]), 8 µg/mL (≈ 17.1 µM); in the experiment with P. aeruginosa ATCC 27853 (setting [2]), above 128 µg/mL; with S. aureus cErmA (setting [3]) it was 8 µg/mL (≈ 17.1 µM); in the experiment on A. baumannii ATCC 19606 (setting [4]), 32 µg/mL (≈ 68.5 µM); in the experiment with E. coli ATCC 25922 (setting [5]) it was 16 µg/mL (≈ 34.3 µM). For the same molecule, the MIC stood at 2 µg/mL (≈ 4.28 µM) in the experiment on E. coli LptD (setting [6]); 0.25 µg/mL (≈ 0.535 µM) in the experiment with E. faecalis ATCC 29212 (setting [7]); 16 µg/mL (≈ 34.3 µM) in the experiment with K. oxytoca Clinical (setting [8]); 0.125 µg/mL (≈ 0.268 µM) in the experiment with S. aureus ATCC 29213 (setting [9]); 0.125 µg/mL (≈ 0.268 µM) in the experiment on S. pneumoniae ATCC 49619 (setting [10]); 0.125 µg/mL (≈ 0.268 µM) in the experiment on S. pyogenes ATCC 19615 (setting [11]).
